This experiment deals with T1, Prostaglandin G/H synthase 1 (Ovis aries, UniProt P05979).
T1 sequence (P05979 whole entry): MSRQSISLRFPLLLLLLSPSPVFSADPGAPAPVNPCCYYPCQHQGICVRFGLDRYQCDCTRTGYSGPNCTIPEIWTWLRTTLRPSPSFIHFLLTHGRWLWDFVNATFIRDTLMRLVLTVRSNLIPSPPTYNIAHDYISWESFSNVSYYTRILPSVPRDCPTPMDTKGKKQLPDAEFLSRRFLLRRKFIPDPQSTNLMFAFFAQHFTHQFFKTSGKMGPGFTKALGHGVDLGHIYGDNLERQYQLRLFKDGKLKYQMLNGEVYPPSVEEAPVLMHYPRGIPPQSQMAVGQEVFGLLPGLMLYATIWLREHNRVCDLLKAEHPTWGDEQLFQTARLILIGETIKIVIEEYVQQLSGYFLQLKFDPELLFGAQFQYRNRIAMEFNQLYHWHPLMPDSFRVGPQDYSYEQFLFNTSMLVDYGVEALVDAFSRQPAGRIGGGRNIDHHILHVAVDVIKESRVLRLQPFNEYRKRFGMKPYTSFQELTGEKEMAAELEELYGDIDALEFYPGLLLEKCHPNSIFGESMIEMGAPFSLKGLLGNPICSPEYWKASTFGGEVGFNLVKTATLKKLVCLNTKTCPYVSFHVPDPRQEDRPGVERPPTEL
Description: Inhibition of ovine COX1 by enzyme chemiluminescent enzyme assay
With `CS(=O)(=O)c1ccc(-c2nc3ccccc3c(N)c2-c2ccccc2)cc1`, half-maximal inhibition (IC50) was put at 14.4 µM.
`CS(=O)(=O)c1ccc(-c2nc3ccccc3c(C(=O)O)c2-c2ccccc2)cc1` registered a concentration for half-maximal inhibition (IC50) of 48.1 µM.
Take `CS(=O)(=O)c1ccc(-c2nc3ccccc3c(-c3ccccc3)c2-c2ccccc2)cc1`: the IC50 stood at 10.2 µM.
As for `CS(=O)(=O)c1ccc(-c2nc3ccccc3cc2-c2ccccc2)cc1`, the IC50 is 33.5 µM.
`Cc1c(-c2ccccc2)c(-c2ccc(S(C)(=O)=O)cc2)nc2ccccc12` showed an IC50 of 13.3 µM.

In general, IC50 refers to the concentration that gives 50% inhibition.
